PubChem BioAssay AID2060891 (Molecular Pharmacology Branch, DTP, NCI, 2025)

Tested on: K98450-129-R-PDC complex spheroid growth, percent test/control
Experiment: Anticancer human tumor K98450-129-R-PDC patient-derived colon adenocarcinoma cell line growth inhibition [RAS]
Details: for viability, T/C: stronger effect = lower value
Summary of the method: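 Agents were tested in combination matrices in half-log decrements from a top concentration at or near clinical Cmax (10 microM if undetermined). Targets were multi-cell spheroids of tumour lines plus HUVEC and MSC stromal cells.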
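Further: spheroids exposed to agents for seven days before the viability readout.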
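Wherever viability, T/C is given: luminescence used as a proxy for viable cell amount.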

With CC(Nc1ccc2c(c1)OCCn1cc(N3C(=O)OCC3C(F)F)nc1-2)C(N)=O (stereo not given) + C=CC(=O)N1CCN(c2nc(OCC3CCCN3C)nc3c(F)c(-c4nc(N)cc(C)c4C(F)(F)F)c(Cl)cc23)C(C)C1 the IC50 (curve of first compound, second compound 0.00316 µM) was > 10000 nM, the IC50 (curve of first compound, second compound 0.01 µM) was > 10000 nM and the IC50 (curve of first compound, second compound 0.0316 µM) was 4560 nM. For the same compound, the IC50 (curve of first compound, second compound 0.1 µM) was 73.8 nM, the IC50 (curve of first compound, second compound 0.316 µM) was < 31.6 nM and the IC50 (curve of first compound, second compound 1 µM) was < 31.6 nM. The viability, T/C (second compound 0.00316 µM, first compound 0.0316 µM) was 92.5%, the viability, T/C (second compound 0.00316 µM, first compound 0.1 µM) was 90.4% and the viability, T/C (second compound 0.00316 µM, first compound 0.316 µM) was 81.7%. The viability, T/C (second compound 0.00316 µM, first compound 1 µM) was 83.1%, the viability, T/C (second compound 0.00316 µM, first compound 3.16 µM) was 70% and the viability, T/C (second compound 0.00316 µM, first compound 10 µM) was 64.3%. It also gave a viability, T/C (second compound 0.01 µM, first compound 0.0316 µM) of 85.4%, a viability, T/C (second compound 0.01 µM, first compound 0.1 µM) of 81.2% and a viability, T/C (second compound 0.01 µM, first compound 0.316 µM) of 78.5%. The viability, T/C (second compound 0.01 µM, first compound 1 µM) was 65.1%, the viability, T/C (second compound 0.01 µM, first compound 3.16 µM) was 59.8% and the viability, T/C (second compound 0.01 µM, first compound 10 µM) was 53.8%. It also gave a viability, T/C (second compound 0.0316 µM, first compound 0.0316 µM) of 69.5%, a viability, T/C (second compound 0.0316 µM, first compound 0.1 µM) of 70.3% and a viability, T/C (second compound 0.0316 µM, first compound 0.316 µM) of 62.7%. The viability, T/C (second compound 0.0316 µM, first compound 1 µM) was 51.4%, the viability, T/C (second compound 0.0316 µM, first compound 3.16 µM) was 53.7% and the viability, T/C (second compound 0.0316 µM, first compound 10 µM) was 46.9%. It also gave a viability, T/C (second compound 0.1 µM, first compound 0.0316 µM) of 53.9%, a viability, T/C (second compound 0.1 µM, first compound 0.1 µM) of 47.4% and a viability, T/C (second compound 0.1 µM, first compound 0.316 µM) of 45%. The viability, T/C (second compound 0.1 µM, first compound 1 µM) was 39%, the viability, T/C (second compound 0.1 µM, first compound 3.16 µM) was 32.5% and the viability, T/C (second compound 0.1 µM, first compound 10 µM) was 28.8%. It also gave a viability, T/C (second compound 0.316 µM, first compound 0.0316 µM) of 35.4%, a viability, T/C (second compound 0.316 µM, first compound 0.1 µM) of 32.5% and a viability, T/C (second compound 0.316 µM, first compound 0.316 µM) of 31.6%. For the same compound, the viability, T/C (second compound 0.316 µM, first compound 1 µM) was 22.4%, the viability, T/C (second compound 0.316 µM, first compound 3.16 µM) was 22.9% and the viability, T/C (second compound 0.316 µM, first compound 10 µM) was 16.6%. It also gave a viability, T/C (second compound 1 µM, first compound 0.0316 µM) of 28.4%, a viability, T/C (second compound 1 µM, first compound 0.1 µM) of 28.2% and a viability, T/C (second compound 1 µM, first compound 0.316 µM) of 23.5%. For the same compound, the viability, T/C (second compound 1 µM, first compound 1 µM) was 18%, the viability, T/C (second compound 1 µM, first compound 3.16 µM) was 15.3% and the viability, T/C (second compound 1 µM, first compound 10 µM) was 14.5%.

O=C(c1ccc(F)c(F)c1Nc1ccc(I)cc1F)N1CC(O)([C@@H]2CCCCN2)C1 was tested, and the viability, T/C (compound 0.00316 µM) was 103% [middle of 4 runs], the viability, T/C (compound 0.0316 µM) was 97.5% [middle of 4 runs] and the viability, T/C (compound 0.1 µM) was 82.3% [middle of 4 runs]. The viability, T/C (compound 0.316 µM) was 21.8% [middle of 4 runs], the viability, T/C (compound 1 µM) was 3.22% [middle of 4 runs] and the IC50 (curve of compound) was 190 nM [middle of 4 runs].

Compound O=C(c1ccc(F)c(F)c1Nc1ccc(I)cc1F)N1CC(O)([C@@H]2CCCCN2)C1 + CCn1c(-c2cc(N3CCN(C)CC3)cnc2C(C)OC)c2c3cc(ccc31)-c1csc(n1)CC(NC(=O)C1CC1C)C(=O)N1CCCC(N1)C(=O)OCC(C)(C)C2 has an IC50 (curve of first compound, second compound 0.000949 µM) of 118 nM, an IC50 (curve of first compound, second compound 0.003 µM) of 64.2 nM and an IC50 (curve of first compound, second compound 0.00949 µM) of 42.2 nM. The IC50 (curve of first compound, second compound 0.03 µM) was 3.23 nM, the IC50 (curve of first compound, second compound 0.0949 µM) was < 3.16 nM and the IC50 (curve of first compound, second compound 0.3 µM) was < 3.16 nM. For the same compound, the viability, T/C (second compound 0.000949 µM, first compound 0.00316 µM) was 94.8%, the viability, T/C (second compound 0.000949 µM, first compound 0.01 µM) was 92% and the viability, T/C (second compound 0.000949 µM, first compound 0.0316 µM) was 87.4%. For the same compound, the viability, T/C (second compound 0.000949 µM, first compound 0.1 µM) was 57.3%, the viability, T/C (second compound 0.000949 µM, first compound 0.316 µM) was 10.2% and the viability, T/C (second compound 0.000949 µM, first compound 1 µM) was 2.95%. The viability, T/C (second compound 0.003 µM, first compound 0.00316 µM) was 95.7%, the viability, T/C (second compound 0.003 µM, first compound 0.01 µM) was 87% and the viability, T/C (second compound 0.003 µM, first compound 0.0316 µM) was 63.2%. For the same compound, the viability, T/C (second compound 0.003 µM, first compound 0.1 µM) was 45.8%, the viability, T/C (second compound 0.003 µM, first compound 0.316 µM) was 7.54% and the viability, T/C (second compound 0.003 µM, first compound 1 µM) was 2.62%. The viability, T/C (second compound 0.00949 µM, first compound 0.00316 µM) was 67.8%, the viability, T/C (second compound 0.00949 µM, first compound 0.01 µM) was 60.7% and the viability, T/C (second compound 0.00949 µM, first compound 0.0316 µM) was 56%. The viability, T/C (second compound 0.00949 µM, first compound 0.1 µM) was 31.1%, the viability, T/C (second compound 0.00949 µM, first compound 0.316 µM) was 3.99% and the viability, T/C (second compound 0.00949 µM, first compound 1 µM) was 2.44%. The viability, T/C (second compound 0.03 µM, first compound 0.00316 µM) was 51.7%, the viability, T/C (second compound 0.03 µM, first compound 0.01 µM) was 45% and the viability, T/C (second compound 0.03 µM, first compound 0.0316 µM) was 31.1%. The viability, T/C (second compound 0.03 µM, first compound 0.1 µM) was 6.53%, the viability, T/C (second compound 0.03 µM, first compound 0.316 µM) was 2.64% and the viability, T/C (second compound 0.03 µM, first compound 1 µM) was 2.51%. The viability, T/C (second compound 0.0949 µM, first compound 0.00316 µM) was 14.9%, the viability, T/C (second compound 0.0949 µM, first compound 0.01 µM) was 10.1% and the viability, T/C (second compound 0.0949 µM, first compound 0.0316 µM) was 7.08%. The viability, T/C (second compound 0.0949 µM, first compound 0.1 µM) was 2.95%, the viability, T/C (second compound 0.0949 µM, first compound 0.316 µM) was 2.96% and the viability, T/C (second compound 0.0949 µM, first compound 1 µM) was 2.57%. For the same compound, the viability, T/C (second compound 0.3 µM, first compound 0.00316 µM) was 8.48%, the viability, T/C (second compound 0.3 µM, first compound 0.01 µM) was 8.02% and the viability, T/C (second compound 0.3 µM, first compound 0.0316 µM) was 4.92%. For the same compound, the viability, T/C (second compound 0.3 µM, first compound 0.1 µM) was 2.97%, the viability, T/C (second compound 0.3 µM, first compound 0.316 µM) was 3.32% and the viability, T/C (second compound 0.3 µM, first compound 1 µM) was 2.59%.
